The values that follow come from US10414754B2, “Indolizine compounds, a process for their preparation and pharmaceutical compositions containing them” (LES LABORATOIRES SERVIER, priority 2013, dated 2019).

Assay [1] deals with T1, Bcl-2 protein (histag-Bcl-2, UniProtKB P10415) (Homo sapiens, UniProt P10415).
T1 construct: His tag
The assay is described as follows: Inhibition of Bcl-2 by the fluorescence polarisation technique. It is filed as binding. To be noted: fluorescence polarisation, 2 hours incubation; read-out: IC50 (nM) Bcl-2 FP. The method, then: The fluorescence polarisation tests were carried out on microplates (384 wells). The Bcl-2 protein, labelled (histag-Bcl-2 such that Bcl-2 corresponds to the UniProtKB® primary accession number: P10415), at a final concentration of 2.50×10^−8 M, is mixed with a fluorescent peptide (Fluorescein-[…]), at a final concentration of 1.00×10^−8M in a buffer solution (Hepes 10 mM, NaCl 150 mM, Tween20 0.05%, pH 7.4), in the presence or absence of increasing concentrations of test compounds. After incubation for 2 hours, the fluorescence polarisation is measured.

Assay [2] concerns RS4;11 leukaemia tumour line. The assay is described as follows: In vitro cytotoxicity (MTT) on RS4;11. It is filed as cell-based. Conditions: Homo sapiens; RS4;11 cells, 48 hours exposure. The method, then: The cytotoxicity studies were carried out on the RS4;11 leukaemia tumour line.
The cells are distributed onto microplates and exposed to the test compounds for 48 hours.
The cell viability is then quantified by a colorimetric assay, the Microculture Tetrazolium Assay (Cancer Res., 1987, 47, 939-942).

Structures can show the parent of a compound that is named as a salt.

T1 sequence (P10415 whole entry): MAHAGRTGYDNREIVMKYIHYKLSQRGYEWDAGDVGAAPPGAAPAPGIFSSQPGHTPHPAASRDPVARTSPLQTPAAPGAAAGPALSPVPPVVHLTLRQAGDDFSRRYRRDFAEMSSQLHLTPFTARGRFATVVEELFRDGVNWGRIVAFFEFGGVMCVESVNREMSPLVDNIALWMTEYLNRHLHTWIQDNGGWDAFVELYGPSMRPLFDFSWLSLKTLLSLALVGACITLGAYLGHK

Regarding `C[C@@H]1Cc2ccccc2CN1C(=O)c1ccc(Cl)cc1-c1cc(C(=O)N(c2ccc(O)cc2)c2ccc3c(cnn3C)c2)c2n1CCNC2` [Example 12, 6-(5-Chloro-2-{[(3R)-3-methyl-3,4-dihydroisoquinolin-2(1H)-yl]-carbonyl}phenyl)-N-(4-hydroxyphenyl)-N-(1-methyl-1H-indazol-5-yl)-1,2,3,4-tetrahydropyrrolo[1,2-a]pyrazine-8-carboxamide hydrochloride], the figures for the IC50 in assay [1] and in assay [2] were 10.4 nM and 116 nM, respectively.
On the same counts, the results for `O=C(c1cc(-c2cc3c(cc2C(=O)N2Cc4ccccc4C[C@H]2CCN2CCOCC2)OCO3)n2c1CCCC2)N(c1ccccc1)c1ccc(O)cc1` [Example 13, N-(4-Hydroxyphenyl)-3-(6-{[(3S)-3-[2-(morpholin-4-yl)ethyl]-3,4-dihydroisoquinolin-2(1H)-yl]carbonyl}-1,3-benzodioxol-5-yl)-N-phenyl-5,6,7,8-tetrahydroindolizine-1-carboxamide hydrochloride] are 5.8 nM and 33.6 nM.
For `Cn1ncc2cc(N(C(=O)c3cc(-c4cc5c(cc4C(=O)N4Cc6ccccc6C[C@H]4CCN4CCOCC4)OCO5)n4c3CCCC4)c3ccc(O)cc3)ccc21` [Example 14, N-(4-Hydroxyphenyl)-N-(1-methyl-1H-indazol-5-yl)-3-(6-{[(3S)-3-[2-(morpholin-4-yl)ethyl]-3,4-dihydroisoquinolin-2(1H)-yl]carbonyl}-1,3-benzodioxol-5-yl)-5,6,7,8-tetrahydroindolizine-1-carboxamide hydrochloride] the same measures were 3.7 nM and 7.6 nM.
For `C[C@@H]1Cc2ccccc2CN1C(=O)c1cc2c(cc1-c1cc(C(=O)N(c3ccccc3)c3ccc(O)cc3)c3n1CCC(N)C3)OCO2` (stereo partly drawn) [Example 15, 7-Amino-N-(4-hydroxyphenyl)-3-(6-{[(3R)-3-methyl-3,4-dihydroiso-quinolin-2(1H)-yl]carbonyl}-1,3-benzodioxol-5-yl)-N-phenyl-5,6,7,8-tetrahydro-indolizine-1-carboxamide hydrochloride] the same measures were 5.7 nM and 166 nM.
For `O=C(c1cc(-c2cc3c(cc2C(=O)N2Cc4ccccc4C[C@H]2CO)OCO3)n2c1CCCC2)N(c1ccccc1)c1ccc(O)cc1` [Example 16, 3-(6-{[(3S)-3-(Hydroxymethyl)-3,4-dihydroisoquinolin-2(1H)-yl]-carbonyl}-1,3-benzodioxol-5-yl)-N-(4-hydroxyphenyl)-N-phenyl-5,6,7,8-tetrahydro-indolizine-1-carboxamide], the IC50 (as a rule, the concentration at which inhibition is half-maximal) in assay [1] amounted to 7.5 nM; in assay [2] it was 252 nM.
For `C[C@@H]1Cc2ccccc2CN1C(=O)c1cc2c(cc1-c1cc(C(=O)N(c3ccc(O)cc3)c3ccc(OCCN4CCOCC4)c(F)c3)c3ccccn13)OCO2` [Example 17, N-{3-Fluoro-4-[2-(morpholin-4-yl)ethoxy]phenyl}-N-(4-hydroxyphenyl)-3-(6-{[(3R)-3-methyl-3,4-dihydroisoquinolin-2(1H)-yl]carbonyl}-1,3-benzodioxol-5-yl)indolizine-1-carboxamide hydrochloride] the same measures were 3.4 nM and 11.8 nM.
On to `O=C(c1cc2c(cc1-c1cc(C(=O)N(c3ccc(O)cc3)c3ccc(OCCN4CCOCC4)c(F)c3)c3ccccn13)OCO2)N1CCc2ccccc2C1` [Example 18, 3-[6-(3,4-Dihydroisoquinolin-2(1H)-ylcarbonyl)-1,3-benzodioxol-5-yl]-N-{3-fluoro-4-[2-(morpholin-4-yl)ethoxy]phenyl}-N-(4-hydroxyphenyl)indolizine-1-carboxamide hydrochloride], for which the IC50 in assay [1] was determined as 7.5 nM; in assay [2] it was 47.7 nM.
Regarding `Cc1ccc(C(=O)N2Cc3ccccc3C[C@H]2CCN2CCOCC2)c(-c2cc(C(=O)N(c3ccccc3)c3ccc(O)cc3)c3n2CCCC3)c1` [Example 19, N-(4-Hydroxyphenyl)-3-(5-methyl-2-{[(3S)-3-[2-(morpholin-4-yl)ethyl]-3,4-dihydroisoquinolin-2(1H)-yl]carbonyl}phenyl)-N-phenyl-5,6,7,8-tetrahydro-indolizine-1-carboxamide hydrochloride], the results for the IC50 in assay [1] and in assay [2] were 8 nM and 235 nM, respectively.
As for `O=C(c1cc(-c2ccccc2C(=O)N2Cc3ccccc3C[C@H]2CCN2CCOCC2)n2c1CCCC2)N(c1ccccc1)c1ccc(O)cc1` [Example 20, N-(4-Hydroxyphenyl)-3-(2-{[(3S)-3-[2-(morpholin-4-yl)ethyl]-3,4-dihydroisoquinolin-2(1H)-yl]carbonyl}phenyl)-N-phenyl-5,6,7,8-tetrahydroindolizine-1-carboxamide hydrochloride], the values for the concentration for half-maximal inhibition (IC50) in assay [1] and in assay [2] were 11.1 nM and 205 nM, respectively.
For `C[C@@H]1Cc2ccccc2CN1C(=O)c1cc2c(cc1-c1cc(C(=O)N(c3ccncc3)c3ccc(O)cc3)c3ccccn13)OCO2` [Example 21, N-(4-Hydroxyphenyl)-3-(6-{[(3R)-3-methyl-3,4-dihydroisoquinolin-2(1H)-yl]carbonyl}-1,3-benzodioxol-5-yl)-N-(pyridin-4-yl)indolizine-1-carboxamide hydrochloride] the same measures were 4.6 nM and 25.3 nM.
On the same counts, the results for `O=C(c1cc(-c2cc3c(cc2C(=O)N2Cc4ccccc4C[C@H]2CCN2CCOCC2)OCO3)n2cccnc12)N(c1ccccc1)c1ccc(O)cc1` [Example 22, N-(4-Hydroxyphenyl)-6-(6-{[(3S)-3-[2-(morpholin-4-yl)ethyl]-3,4-dihydroisoquinolin-2(1H)-yl]carbonyl}-1,3-benzodioxol-5-yl)-N-phenylpyrrolo[1,2-a]-pyrimidine-8-carboxamide hydrochloride] are 12.9 nM and 263 nM.
Take `N#Cc1cccc(N(C(=O)c2cc(-c3cc4c(cc3C(=O)N3Cc5ccccc5C[C@H]3CCN3CCOCC3)OCO4)n3c2CCCC3)c2ccc(O)cc2)c1` [Example 23, N-(3-Cyanophenyl)-N-(4-hydroxyphenyl)-3-(6-{[(3S)-3-[2-(morpholin-4-yl)ethyl]-3,4-dihydroisoquinolin-2(1H)-yl]carbonyl}-1,3-benzodioxol-5-yl)-5,6,7,8-tetrahydroindolizine-1-carboxamide hydrochloride]: the IC50 in assay [1] was found to be 3.8 nM; in assay [2] it was 9.99 nM.
For `O=C(c1cc(-c2cc3c(cc2C(=O)N2Cc4ccccc4C[C@H]2CCN2CCOCC2)OCO3)n2c1CCCC2)N(c1ccc(O)cc1)c1cccc(F)c1` [Example 24, N-(3-Fluorophenyl)-N-(4-hydroxyphenyl)-3-(6-{[(3S)-3-[2-(morpholin-4-yl)ethyl]-3,4-dihydroisoquinolin-2(1H)-yl]carbonyl}-1,3-benzodioxol-5-yl)-5,6,7,8-tetrahydroindolizine-1-carboxamide hydrochloride] the same measures were 6.2 nM and 28.4 nM.
For `O=C(c1cc(-c2cc3c(cc2C(=O)N2Cc4ccccc4C[C@H]2CCN2CCOCC2)OCO3)n2c1CCCC2)N(c1ccc(O)cc1)c1ccc(F)c(F)c1` [Example 25, N-(3,4-Difluorophenyl)-N-(4-hydroxyphenyl)-3-(6-{[(3S)-3-[2-(morpholin-4-yl)ethyl]-3,4-dihydroisoquinolin-2(1H)-yl]carbonyl}-1,3-benzodioxol-5-yl)-5,6,7,8-tetrahydroindolizine-1-carboxamide hydrochloride], the figures for the 50% inhibitory concentration (IC50) in assay [1] and in assay [2] were 7.9 nM and 30 nM, respectively.
For `O=C(c1cc(-c2cc3c(cc2C(=O)N2Cc4ccccc4C[C@H]2CCN2CCOCC2)OCO3)n2c1CCCC2)N(c1ccccc1)c1cccc(F)c1` [Example 26, N-(3-Fluorophenyl)-3-(6-{[(3S)-3-[2-(morpholin-4-yl)ethyl]-3,4-dihydro-isoquinolin-2(1H)-yl]carbonyl}-1,3-benzodioxol-5-yl)-N-phenyl-5,6,7,8-tetrahydro-indolizine-1-carboxamide hydrochloride] the same measures were 16.6 nM and 300 nM.
For the molecule `O=C(c1cc(-c2cc(Cl)ccc2C(=O)N2Cc3ccccc3C[C@H]2CCN2CCOCC2)n2c1CCCC2)N(c1ccc(O)cc1)c1cccc(F)c1` [Example 27, 3-(5-Chloro-2-{[(3S)-3-[2-(morpholin-4-yl)ethyl]-3,4-dihydroisoquinolin-2(1H)-yl]carbonyl}phenyl)-N-(3-fluorophenyl)-N-(4-hydroxyphenyl)-5,6,7,8-tetrahydroindolizine-1-carboxamide hydrochloride], the figures for the IC50 in assay [1] and in assay [2] were 7.7 nM and 44.1 nM, respectively.
For `COc1ccc(C(=O)N2Cc3ccccc3C[C@H]2CCN2CCOCC2)c(-c2cc(C(=O)N(c3ccccc3)c3ccc(O)cc3)c3n2CCCC3)c1` [Example 28, N-(4-Hydroxyphenyl)-3-(5-methoxy-2-{[(3S)-3-[2-(morpholin-4-yl)ethyl]-3,4-dihydroisoquinolin-2(1H)-yl]carbonyl}phenyl)-N-phenyl-5,6,7,8-tetrahydro-indolizine-1-carboxamide hydrochloride] the same measures were 8.8 nM and 112 nM.
For `COc1ccc(-c2cc(C(=O)N(c3ccccc3)c3ccc(O)cc3)c3n2CCCC3)c(C(=O)N2Cc3ccccc3C[C@H]2CCN2CCOCC2)c1` [Example 29, N-(4-Hydroxyphenyl)-3-(4-methoxy-2-{[(3S)-3-[2-(morpholin-4-yl)ethyl]-3,4-dihydroisoquinolin-2(1H)-yl]carbonyl}phenyl)-N-phenyl-5,6,7,8-tetrahydro-indolizine-1-carboxamide hydrochloride] the same measures were 19 nM and 163 nM.
